Results: ChEMBL document CHEMBL3862012, “Methylene versus carbonyl bridge in the structure of new tubulin polymerization inhibitors with tricyclic A-rings” (Bioorg Med Chem, 2016)

How the values were obtained:
Format in all cases: functional
[1] = Cytotoxicity against human RXF393 cells assessed as growth inhibition at 10 uM after 48 hrs by SRB assay relative to control; settings: RXF 393, 48 h, read-out: GI
[2] = Cytotoxicity against human EKVX cells assessed as growth inhibition at 10 uM after 48 hrs by SRB assay relative to control; settings: read-out: GI
[3] = Cytotoxicity against human MALME-3M cells assessed as growth inhibition at 10 uM after 48 hrs by SRB assay relative to control; settings: read-out: GI
[4] = Cytotoxicity against human NCI-H23 cells assessed as growth inhibition at 10 uM after 48 hrs by SRB assay relative to control; settings: NCI-H23, 48 h, read-out: GI
[5] = Cytotoxicity against human OVCAR8 cells assessed as growth inhibition after 48 hrs by SRB assay; settings: OVCAR-8, 48 h
[6] = Cytotoxicity against human BT549 cells assessed as growth inhibition after 48 hrs by SRB assay; settings: BT-549, 48 h
[7] = Cytotoxicity against human UO31 cells assessed as growth inhibition after 48 hrs by SRB assay; settings: UO-31, 48 h
[8] = Cytotoxicity against human RPMI8226 cells assessed as growth inhibition after 48 hrs by SRB assay; settings: RPMI-8226, 48 h
[9] = Cytotoxicity against human HL-60(TB) cells assessed as growth inhibition after 48 hrs by SRB assay; settings: HL-60, 48 h
[10] = Cytotoxicity against human NCI-H322M cells assessed as growth inhibition at 10 uM after 48 hrs by SRB assay relative to control; settings: read-out: GI
[11] = Cytotoxicity against human HOP92 cells assessed as growth inhibition after 48 hrs by SRB assay; settings: HOP-92, 48 h
[12] = Cytotoxicity against human HT-29 cells assessed as growth inhibition after 48 hrs by SRB assay; settings: HT-29, 48 h
[13] = Cytotoxicity against human K562 cells assessed as growth inhibition at 10 uM after 48 hrs by SRB assay relative to control; settings: K562, 48 h, read-out: GI
[14] = Cytotoxicity against human SK-MEL-5 cells assessed as growth inhibition at 10 uM after 48 hrs by SRB assay relative to control; settings: SK-MEL-5, 48 h, read-out: GI
[15] = Cytotoxicity against human IGROV1 cells assessed as growth inhibition after 48 hrs by SRB assay; settings: IGROV-1, 48 h
[16] = Cytotoxicity against human CCRF-CEM cells assessed as growth inhibition at 10 uM after 48 hrs by SRB assay relative to control; settings: read-out: GI
[17] = Cytotoxicity against human UO31 cells assessed as growth inhibition at 10 uM after 48 hrs by SRB assay relative to control; settings: UO-31, 48 h, read-out: GI
[18] = Cytotoxicity against human IGROV1 cells assessed as growth inhibition at 10 uM after 48 hrs by SRB assay relative to control; settings: IGROV-1, 48 h, read-out: GI
[19] = Cytotoxicity against human LOXIMVI cells assessed as growth inhibition after 48 hrs by SRB assay; settings: LOX IMVI
[20] = Cytotoxicity against human RXF393 cells assessed as growth inhibition after 48 hrs by SRB assay; settings: RXF 393, 48 h
[21] = Cytotoxicity against human PC3 cells assessed as growth inhibition after 48 hrs by SRB assay; settings: PC-3, 48 h
[22] = Cytotoxicity against human MCF7 cells assessed as growth inhibition after 48 hrs by SRB assay; settings: MCF7, 48 h
[23] = Cytotoxicity against human SKOV3 cells assessed as growth inhibition after 48 hrs by SRB assay; settings: SK-OV-3, 48 h
[24] = Cytotoxicity against human SK-MEL-2 cells assessed as growth inhibition after 48 hrs by SRB assay; settings: SK-MEL-2, 48 h
[25] = Cytotoxicity against human M14 cells assessed as growth inhibition after 48 hrs by SRB assay; settings: M14, 48 h
[26] = Cytotoxicity against human SK-MEL-5 cells assessed as growth inhibition after 48 hrs by SRB assay; settings: SK-MEL-5, 48 h
[27] = Cytotoxicity against human MOLT4 cells assessed as growth inhibition at 10 uM after 48 hrs by SRB assay relative to control; settings: MOLT-4, 48 h, read-out: GI
[28] = Cytotoxicity against human OVCAR5 cells assessed as growth inhibition at 10 uM after 48 hrs by SRB assay relative to control; settings: OVCAR-5, 48 h, read-out: GI
[29] = Cytotoxicity against human MCF7 cells assessed as growth inhibition at 10 uM after 48 hrs by SRB assay relative to control; settings: MCF7, 48 h, read-out: GI
[30] = Cytotoxicity against human NCI-ADR-RES cells assessed as growth inhibition after 48 hrs by SRB assay
[31] = Cytotoxicity against human SW620 cells assessed as growth inhibition at 10 uM after 48 hrs by SRB assay relative to control; settings: SW-620, 48 h, read-out: GI
[32] = Cytotoxicity against human NCI-H460 cells assessed as growth inhibition after 48 hrs by SRB assay; settings: NCI-H460, 48 h
[33] = Cytotoxicity against human NCI-H460 cells assessed as growth inhibition at 10 uM after 48 hrs by SRB assay relative to control; settings: NCI-H460, 48 h, read-out: GI
[34] = Cytotoxicity against human PC3 cells assessed as growth inhibition at 10 uM after 48 hrs by SRB assay relative to control; settings: PC-3, 48 h, read-out: GI
[35] = Cytotoxicity against human HCT15 cells assessed as growth inhibition after 48 hrs by SRB assay; settings: HCT-15, 48 h
[36] = Cytotoxicity against human OVCAR3 cells assessed as growth inhibition after 48 hrs by SRB assay; settings: OVCAR-3, 48 h
[37] = Cytotoxicity against human HT-29 cells assessed as growth inhibition at 10 uM after 48 hrs by SRB assay relative to control; settings: HT-29, 48 h, read-out: GI
[38] = Cytotoxicity against human SW620 cells assessed as growth inhibition after 48 hrs by SRB assay; settings: SW-620, 48 h
[39] = Cytotoxicity against human NCI-H23 cells assessed as growth inhibition after 48 hrs by SRB assay; settings: NCI-H23, 48 h
[40] = Cytotoxicity against human SF295 cells assessed as growth inhibition after 48 hrs by SRB assay; settings: SF-295, 48 h
[41] = Cytotoxicity against human OVCAR3 cells assessed as growth inhibition at 10 uM after 48 hrs by SRB assay relative to control; settings: OVCAR-3, 48 h, read-out: GI
[42] = Cytotoxicity against human OVCAR8 cells assessed as growth inhibition at 10 uM after 48 hrs by SRB assay relative to control; settings: OVCAR-8, 48 h, read-out: GI
[43] = Cytotoxicity against human LOXIMVI cells assessed as growth inhibition at 10 uM after 48 hrs by SRB assay relative to control; settings: LOX IMVI, read-out: GI

Q: For `COc1ccc(CN2c3ccccc3Sc3ccccc32)cc1F`, which inhibition of growth at 10 µM [1] is on record?
A: 83%

Q: And the inhibition of growth at 10 µM [2]?
A: 66%

Q: And the inhibition of growth at 10 µM [3]?
A: 67%

Q: And the inhibition of growth at 10 µM [4]?
A: 69%

Q: And the GI50 [5]?
A: 663 nM

Q: What about the GI50 [6] of the same compound?
A: 562 nM

Q: What about the GI50 [7] of the same compound?
A: 916 nM

Q: And the GI50 [8]?
A: 482 nM

Q: What about the GI50 [9] of the same compound?
A: 262 nM

Q: And the inhibition of growth at 10 µM [10]?
A: 57%

Q: And the GI50 [11]?
A: 806 nM

Q: What about the GI50 [12] of the same compound?
A: 331 nM

Q: And the inhibition of growth at 10 µM [13]?
A: 89%

Q: What about the inhibition of growth at 10 µM [14] of the same compound?
A: 78%

Q: What about the GI50 [15] of the same compound?
A: 1070 nM

Q: And the inhibition of growth at 10 µM [16]?
A: 78%

Q: What about the inhibition of growth at 10 µM [17] of the same compound?
A: 54%

Q: And the inhibition of growth at 10 µM [18]?
A: 64%

Q: What about the GI50 [19] of the same compound?
A: 722 nM

Q: What about the GI50 [20] of the same compound?
A: 304 nM

Q: And the GI50 [21]?
A: 485 nM

Q: And the GI50 [22]?
A: 365 nM

Q: And the GI50 [23]?
A: 475 nM

Q: And the GI50 [24]?
A: 405 nM

Q: What about the GI50 [25] of the same compound?
A: 317 nM

Q: What about the GI50 [26] of the same compound?
A: 488 nM

Q: And the inhibition of growth at 10 µM [27]?
A: 73%

Q: What about the inhibition of growth at 10 µM [28] of the same compound?
A: 57%

Q: And the inhibition of growth at 10 µM [29]?
A: 84%

Q: What about the GI50 [30] of the same compound?
A: 326 nM

Q: What about the inhibition of growth at 10 µM [31] of the same compound?
A: 76%

Q: What about the GI50 [32] of the same compound?
A: 389 nM

Q: And the inhibition of growth at 10 µM [33]?
A: 95%

Q: And the inhibition of growth at 10 µM [34]?
A: 79%

Q: What about the GI50 [35] of the same compound?
A: 437 nM

Q: What about the GI50 [36] of the same compound?
A: 264 nM

Q: What about the inhibition of growth at 10 µM [37] of the same compound?
A: 100%

Q: And the GI50 [38]?
A: 384 nM

Q: What about the GI50 [39] of the same compound?
A: 764 nM

Q: And the GI50 [40]?
A: 333 nM

Q: And the inhibition of growth at 10 µM [41]?
A: 100%

Q: What about the inhibition of growth at 10 µM [42] of the same compound?
A: 76%

Q: And the inhibition of growth at 10 µM [43]?
A: 60%
